Assay results published in US9505749B2, “Quinazolinone compounds and derivatives thereof” (AMGEN INC., priority 2012, dated 2016).
pEC50, pIC50: −log10 of the molar value. Read-outs that look alike come from different tables or passages of the source.

What was measured:
[1] = molecular target: 6×HIS-tankyrase 2 (946-1162) (Homo sapiens (Human), UniProt Q9H2K2); test: Tankyrase 2 biochemical assay (AlphaLisa, PARsylation); conditions: 250 nM NAD; read-out: TNKS2 IC50
[2] = molecular target: PARP2 (Homo sapiens (Human), UniProt Q9UGN5); test: PARP2 biochemical assay (BPS kit)
Chain of PARP2 (Q9UGN5 whole entry): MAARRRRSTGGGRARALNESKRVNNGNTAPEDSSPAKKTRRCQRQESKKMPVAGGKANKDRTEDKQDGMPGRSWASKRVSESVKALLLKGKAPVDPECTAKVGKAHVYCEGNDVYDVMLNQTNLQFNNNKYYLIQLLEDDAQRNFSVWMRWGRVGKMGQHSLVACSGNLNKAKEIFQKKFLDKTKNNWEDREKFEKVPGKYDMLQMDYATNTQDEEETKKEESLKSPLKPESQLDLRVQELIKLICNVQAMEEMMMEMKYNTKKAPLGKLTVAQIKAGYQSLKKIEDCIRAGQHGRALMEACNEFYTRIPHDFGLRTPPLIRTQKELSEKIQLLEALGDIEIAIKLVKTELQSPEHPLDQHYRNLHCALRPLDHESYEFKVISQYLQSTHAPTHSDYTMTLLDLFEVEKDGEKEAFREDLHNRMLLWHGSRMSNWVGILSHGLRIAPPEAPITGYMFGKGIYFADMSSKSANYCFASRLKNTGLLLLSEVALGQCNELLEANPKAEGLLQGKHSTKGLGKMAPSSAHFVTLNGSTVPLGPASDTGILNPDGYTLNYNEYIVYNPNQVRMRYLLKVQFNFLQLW

[3] = system: total β-catenin in SW480 colorectal cells; test: Total β-catenin MSD 96-well plate assay for SW480 cells; conditions: Homo sapiens, SW480, read-out: SW480-Total beta-catenin (TBC) IC50 IP
[4] = system: Axin2 accumulation in SW480 cells; test: Axin2 384 immunofluorescence assay; format: cell-based; conditions: Homo sapiens, read-out: Axin2 384 IF EC50
[5] = molecular target: PARP1 (Homo sapiens (Human), UniProt P09874); test: PARP1 biochemical assay (Trevigen kit)
Chain of PARP1 (P09874 whole entry): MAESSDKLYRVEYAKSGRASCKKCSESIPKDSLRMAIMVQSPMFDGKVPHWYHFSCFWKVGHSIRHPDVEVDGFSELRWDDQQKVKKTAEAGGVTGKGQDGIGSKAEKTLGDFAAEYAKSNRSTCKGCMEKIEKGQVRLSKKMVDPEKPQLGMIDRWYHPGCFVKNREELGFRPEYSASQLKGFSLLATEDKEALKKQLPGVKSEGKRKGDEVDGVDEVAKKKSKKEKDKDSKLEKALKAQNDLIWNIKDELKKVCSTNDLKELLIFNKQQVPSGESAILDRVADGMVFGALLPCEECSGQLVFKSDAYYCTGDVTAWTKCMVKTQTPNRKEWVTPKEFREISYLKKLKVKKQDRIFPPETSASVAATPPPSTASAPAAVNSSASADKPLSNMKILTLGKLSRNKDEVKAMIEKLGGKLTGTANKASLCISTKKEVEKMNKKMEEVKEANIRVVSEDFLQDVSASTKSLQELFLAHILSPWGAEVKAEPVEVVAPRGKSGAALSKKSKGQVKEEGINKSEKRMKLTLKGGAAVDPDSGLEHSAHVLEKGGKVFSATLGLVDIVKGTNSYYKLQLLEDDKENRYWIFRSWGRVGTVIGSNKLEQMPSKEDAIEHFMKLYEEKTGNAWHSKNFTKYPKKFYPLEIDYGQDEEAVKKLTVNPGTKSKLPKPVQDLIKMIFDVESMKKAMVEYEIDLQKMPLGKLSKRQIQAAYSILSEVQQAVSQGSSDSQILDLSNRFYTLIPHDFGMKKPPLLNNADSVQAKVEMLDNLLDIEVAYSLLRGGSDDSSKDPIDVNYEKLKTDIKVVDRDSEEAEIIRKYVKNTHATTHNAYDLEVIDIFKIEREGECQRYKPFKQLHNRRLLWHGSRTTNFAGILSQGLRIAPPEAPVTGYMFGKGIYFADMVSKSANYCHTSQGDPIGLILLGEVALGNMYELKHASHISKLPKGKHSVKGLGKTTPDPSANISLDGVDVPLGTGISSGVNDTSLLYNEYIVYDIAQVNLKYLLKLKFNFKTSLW
Text: PARP1 biochemical assay was purchased as a kit from Trevigen (cat.#4676-096-K) and used per manufacturers recommendations.

Chain of 6×HIS-tankyrase 2 (946-1162) (Q9H2K2 946-1162): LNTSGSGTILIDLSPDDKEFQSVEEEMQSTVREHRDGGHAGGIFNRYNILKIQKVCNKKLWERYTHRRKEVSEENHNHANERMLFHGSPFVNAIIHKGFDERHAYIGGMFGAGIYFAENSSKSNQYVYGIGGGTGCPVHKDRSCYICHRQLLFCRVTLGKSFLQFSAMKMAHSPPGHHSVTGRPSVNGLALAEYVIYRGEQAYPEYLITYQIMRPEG

| SMILES | pIC50 [1] | pIC50 [2] | pIC50 [3] | pEC50 ([4]; SW480 cells, 24 hours) | pIC50 [5] | pEC50 ([4]; SW480, 24 h) |
| --- | --- | --- | --- | --- | --- | --- |
| O=C(CCCc1nc2ccccc2c(=O)[nH]1)N1CCC(c2noc3ccc(F)cc23)CC1 [Example 72, 2-(4-(4-(5-fluorobenzo[d]isoxazol-3-yl)piperidin-1-yl)-4-oxobutyl)quinazolin-4(3H)-one trifluoroacetic acid] |  |  | 5.95 | 6.20 |  |  |
| O=C(CCc1nc2ccccc2c(=O)[nH]1)N[C@H]1CC[C@H](c2nnc(C3CCOCC3)o2)CC1 [Example 135, 3-(4-oxo-3,4-dihydroquinazolin-2-yl)-N-((1r,4r)-4-(5-(tetrahydro-2H-pyran-4-yl)-1,3,4-oxadiazol-2-yl)cyclohexyl)propanamide] |  |  | < 5.00 |  |  |  |
| O=C(CCSc1nccc(=O)[nH]1)N[C@H]1CC[C@H](c2nnc(-c3ccccc3)o2)CC1 [Example 123, 3-((6-oxo-1,6-dihydropyrimidin-2-yl)thio)-N-((1r,4r)-4-(5-phenyl-1,3,4-oxadiazol-2-yl)cyclohexyl)propanamide] |  | < 3.77 | 5.67 | 5.48 | < 4.07 |  |
| O=C(CSc1nc2ccccc2c(=O)[nH]1)N[C@H]1CC[C@H](Oc2ccc(F)cc2)CC1 [Example 99, N-((1r,4r)-4-(4-fluorophenoxy)cyclohexyl)-2-((4-oxo-3,4-dihydroquinazolin-2-yl)thio) acetamide] |  |  | 5.62 | 5.67 |  |  |
| O=C(CCc1cc(=O)n2ccccc2n1)N[C@H]1CC[C@H](c2nnc(-c3ccccc3)o2)CC1 [Example 38, 3-(4-oxo-4H-pyrido[1,2-a]pyrimidin-2-yl)-N-((1r,4r)-4-(5-phenyl-1,3,4-oxadiazol-2-yl)cyclohexyl) propanamide] |  |  | 5.84 | 5.09 |  |  |
| O=C(CCCc1nc2ccccc2c(=O)[nH]1)N[C@H]1CC[C@H](Oc2ccccc2)C1 [Example 65, 4-(4-oxo-3,4-dihydroquinazolin-2-yl)-N-((1S,3S)-3-phenoxycyclopentyl)butanamide+4-(4-oxo-3,4-dihydroquinazolin-2-yl)-N-((1R,3R)-3-phenoxycyclopentyl)butanamide] |  |  | < 5.00 |  |  |  |
| O=C(CCCc1nc2ccccc2c(=O)[nH]1)N1CCN(c2noc3ccccc23)CC1 [Example 71, 2-(4-(4-(benzo[d]isoxazol-3-yl)piperazin-1-yl)-4-oxobutyl)quinazolin-4(3H)-one trifluoroacetic acid] |  |  | 5.46 | 5.38 |  |  |
| O=C1Nc2cc(Cl)ccc2C1C1CCN(C(=O)CCCc2nc3ccccc3c(=O)[nH]2)CC1 (racemic) [Example 76, 2-(4-(4-((3S)-6-chloro-2-oxo-2,3-dihydro-1H-indol-3-yl)-1-piperidinyl)-4-oxobutyl)-4(3H)-quinazolinone trifluoroacetic acid and 2-(4-(4-((3R)-6-chloro-2-oxo-2,3-dihydro-1H-indol-3-yl)-1-piperidinyl)-4-oxobutyl)-4(3H)-quinazolinone trifluoroacetic acid] |  |  | 5.52 |  |  | 5.53 |
| O=C(CCc1nc2ccccc2c(=O)[nH]1)N[C@H]1CC[C@H](c2nnc(-c3ccccc3F)o2)CC1 [Example 126, N-((1r,4r)-4-(5-(2-fluorophenyl)-1,3,4-oxadiazol-2-yl)cyclohexyl)-3-(4-oxo-3,4-dihydroquinazolin-2-yl)propanamide] |  |  |  |  | 5.29 |  |
| O=C(CCc1nc2ccccc2c(=O)[nH]1)N[C@H]1CC[C@H](c2nnc(-c3ncccn3)o2)CC1 [Example 133, 3-(4-oxo-3,4-dihydroquinazolin-2-yl)-N-((1r,4r)-4-(5-(pyrimidin-2-yl)-1,3,4-oxadiazol-2-yl)cyclohexyl)propanamide] |  | 5.73 | < 5.00 |  | 5.34 |  |
| O=C(CCCc1nc2ccccc2c(=O)[nH]1)N[C@H]1CC[C@H](n2c(=O)[nH]c3ccccc32)CC1 [Example 73, N-((1r,4r)-4-(2-oxo-2,3-dihydro-1H-benzo[d]imidazol-1-yl)cyclohexyl)-4-(4-oxo-3,4-dihydroquinazolin-2-yl)butanamide trifluoroacetic acid] |  |  | 7.68 |  |  | 7.53 |
| O=C(CCc1nc2ncccc2c(=O)[nH]1)N[C@H]1CC[C@H](c2nnc(-c3ccccc3)o2)CC1 [Example 81, 3-(4-oxo-3,4-dihydropyrido[2,3-d]pyrimidin-2-yl)-N-((1r,4r)-4-(5-phenyl-1,3,4-oxadiazol-2-yl)cyclohexyl) propanamide] |  | 5.07 | 5.71 | 5.06 |  |  |
| O=C(CCc1nc2ccccc2c(=O)[nH]1)N[C@H]1CC[C@H](c2nnc(C3CCCCC3)o2)CC1 [Example 138, N-((1r,4r)-4-(5-cyclohexyl-1,3,4-oxadiazol-2-yl)cyclohexyl)-3-(4-oxo-3,4-dihydroquinazolin-2-yl)propanamide] |  | 5.58 |  | < 4.60 | 5.26 |  |

Continued by rising pIC50 [3], values first:

| pIC50 [1] | pIC50 [2] | pIC50 [3] | pEC50 ([4]; SW480 cells, 24 hours) | pIC50 [5] | SMILES | pEC50 ([4]; SW480, 24 h) |
| --- | --- | --- | --- | --- | --- | --- |
|  | 6.28 | 5.99 |  | 5.46 | O=C(CCc1nc2c(c(=O)[nH]1)CCCN2)N[C@H]1CC[C@H](c2nnc(-c3ccccc3)o2)CC1 [Example 88, 3-(4-oxo-3,4,5,6,7,8-hexahydropyrido[2,3-d]pyrimidin-2-yl)-N-((1r,4r)-4-(5-phenyl-1,3,4-oxadiazol-2-yl)cyclohexyl)propanamide] |  |
|  |  | 6.21 | 6.42 |  | O=C(CCCc1nc2ccccc2c(=O)[nH]1)N1CCC(n2nnc3ccccc32)CC1 [Example 75, 2-(4-(4-(1H-benzo[d][1,2,3]triazol-1-yl)piperidin-1-yl)-4-oxobutyl)quinazolin-4(3H)-one trifluoroacetic acid] |  |
|  | 5.58 | 6.31 |  | 5.61 | O=C(CCc1nc2ccccc2c(=O)[nH]1)N[C@H]1CC[C@H](c2nnc(-c3ccncc3)o2)CC1 [Example 132, 3-(4-oxo-3,4-dihydroquinazolin-2-yl)-N-((1r,4r)-4-(5-(pyridin-4-yl)-1,3,4-oxadiazol-2-yl)cyclohexyl)propanamide] |  |
| 7.85 | 5.68 | 6.60 |  |  | N#Cc1ccc(-c2nnc([C@H]3CC[C@H](NC(=O)CCc4nc5ccccc5c(=O)[nH]4)CC3)o2)cc1 [Example 134, N-((1r,4r)-4-(5-(4-cyanophenyl)-1,3,4-oxadiazol-2-yl)cyclohexyl)-3-(4-oxo-3,4-dihydroquinazolin-2-yl)propanamide] |  |
|  | 6.17 | 6.93 | 6.64 |  | O=C(CCc1nc2ccccc2c(=O)[nH]1)N[C@H]1CC[C@H](c2nnc(-c3ccc(Cl)cc3)o2)CC1 [Example 141, N-((1r,4r)-4-(5-(4-chlorophenyl)-1,3,4-oxadiazol-2-yl)cyclohexyl)-3-(4-oxo-3,4-dihydroquinazolin-2-yl)propanamide] |  |
|  | 5.80 | 7.04 | 6.27 | 4.54 | O=C(CSc1nc2ccccc2c(=O)[nH]1)N[C@H]1CC[C@H](c2nnc(-c3ccccc3)o2)CC1 [Example 96, 2-((4-oxo-3,4-dihydroquinazolin-2-yl)thio)-N-((1r,4r)-4-(5-phenyl-1,3,4-oxadiazol-2-yl)cyclohexyl) acetamide] |  |
|  | 6.01 | 7.10 | 6.19 | 5.57 | O=C(CCc1nc2ccccc2c(=O)[nH]1)N[C@H]1CC[C@H](c2nnc(-c3ccccc3)o2)CC1 [Example 2, 3-(4-oxo-3,4-dihydro-2-quinazolinyl)-N-(trans-4-(5-phenyl-1,3,4-oxadiazol-2-yl)cyclohexyl)propanamide] |  |
|  | < 3.77 | 7.32 | 7.29 | < 4.07 | N#Cc1cccc(O[C@H]2CC[C@H](NC(=O)CCSc3nc4ccccc4c(=O)[nH]3)CC2)c1 [Example 109] |  |
|  |  | 7.34 | 7.09 |  | COc1ccc2c(c1)[nH]c(=O)n2C1CCN(C(=O)CCCc2nc3ccccc3c(=O)[nH]2)CC1 [Example 8, 2-(4-(4-(5-methoxy-2-oxo-2,3-dihydro-1H-benzimidazol-1-yl)-1-piperidinyl)-4-oxobutyl)-4(3H)-quinazolinone] |  |
|  |  | 7.37 | 6.65 |  | O=C(CCc1nc2ccccc2c(=O)[nH]1)N[C@H]1CC[C@H](n2c(=O)oc3ccccc32)CC1 [Example 80] |  |
|  |  | 7.70 | 7.44 | < 4.07 | O=C(CCSc1nc2ccccc2c(=O)[nH]1)N[C@H]1CC[C@H](Oc2ccc(Cl)cc2)CC1 [Example 105, N-((1r,4r)-4-(4-chlorophenoxy)cyclohexyl)-3-((4-oxo-3,4-dihydroquinazolin-2-yl)thio) propanamide] |  |
|  |  | 7.78 | 7.13 |  | O=C(CCCc1nc2ccccc2c(=O)[nH]1)N[C@H]1CC[C@H](c2nnc(-c3ccccc3)o2)CC1 [Example 10, 4-(4-oxo-3,4-dihydro-2-quinazolinyl)-N-(trans-4-(5-phenyl-1,3,4-oxadiazol-2-yl)cyclohexyl)butanamide] |  |
|  | 5.31 | 7.78 | 7.64 |  | O=C(CCSc1nc2ccccc2c(=O)[nH]1)N[C@H]1CC[C@H](Oc2ccc(F)cc2)CC1 [Example 100, N-((1r,4r)-4-(4-fluorophenoxy)cyclohexyl)-3-((4-oxo-3,4-dihydroquinazolin-2-yl)thio) propanamide] |  |
| 9.52 | 5.75 | 7.80 | 7.73 |  | O=C(CCCc1nc2ccccc2c(=O)[nH]1)N[C@H]1CC[C@H](c2nnc(-c3ccc(F)cc3)o2)CC1 [Example 28, N-(trans-4-(5-(4-fluorophenyl)-1,3,4-oxadiazol-2-yl)cyclohexyl)-4-(4-oxo-3,4-dihydro-2-quinazolinyl)butanamide] |  |
|  |  | 8.72 | 9.18 |  | O=C(CCSc1nc2ccccc2c(=O)[nH]1)N[C@H]1CC[C@H](c2nnc(-c3ccncc3)o2)CC1 [Example 124, 3-((4-oxo-3,4-dihydroquinazolin-2-yl)thio)-N-(trans-4-(5-(pyridin-4-yl)-1,3,4-oxadiazol-2-yl)cyclohexyl)propanamide] |  |
